Data taken from ChEMBL document CHEMBL1649556, “Lack of antimicrobial activity by the antiretroviral drug nevirapine against common bacterial pathogens” (2009).
In brackets after ≈: the same amount, converted by molar mass. Activity calls are given as the source filed them. The calls are words filed in the database; no cut-off is given here.

Legend:
[1] = test system: Human immunodeficiency virus; test: Antiviral activity against HIV infected in human PBMC assessed as decrease in viral p24 antigen production at 0.25 to 4 ug/ml after 14 days by ELISA; type: functional, organism-based
Streptococcus pneumoniae [2] = test: Antibacterial activity against Streptococcus pneumoniae ATCC 49619 after 18 to 24 hrs by agar dilution method; type: functional
Haemophilus influenzae [3] = test: Antibacterial activity against Haemophilus influenzae […] after 18 to 24 hrs by agar dilution method; type: functional
Escherichia coli [4] = test: Antibacterial activity against Escherichia coli ATCC 25922 after 18 to 24 hrs by agar dilution method; type: functional
Staphylococcus aureus [5] = test: Antibacterial activity against Staphylococcus aureus ATCC 29213 after 18 to 24 hrs by agar dilution method; type: functional
Shigella sonnei = test: Antibacterial activity against Shigella sonnei […] after 18 to 24 hrs by agar dilution method; type: functional
[6] = Antibacterial activity against Salmonella group B ATCC 31194 after 18 to 24 hrs by agar dilution method; type: functional; conditions: Salmonella sp. 'group B'
Streptococcus pneumoniae [7] = test: Antibacterial activity against Streptococcus pneumoniae after 18 to 24 hrs by agar dilution method; type: functional
Haemophilus influenzae [8] = test: Antibacterial activity against Haemophilus influenzae after 18 to 24 hrs by agar dilution method; type: functional
Escherichia coli [9] = test: Antibacterial activity against Escherichia coli after 18 to 24 hrs by agar dilution method; type: functional
Staphylococcus aureus [10] = test: Antibacterial activity against Staphylococcus aureus after 18 to 24 hrs by agar dilution method; type: functional
Salmonella = test: Antibacterial activity against Salmonella group D after 18 to 24 hrs by agar dilution method; type: functional
Shigella flexneri = test: Antibacterial activity against Shigella flexneri group B after 18 to 24 hrs by agar dilution method; type: functional

With `Cc1ccnc2c1NC(=O)c1cccnc1N2C1CC1` [NEVIRAPINE] the inhibition [1] was “Active”, the MIC (Streptococcus pneumoniae [2]) was 4 µg/mL (≈ 15 µM) and the MIC (Haemophilus influenzae [3]) was 4 µg/mL (≈ 15 µM). It also gave an MIC (Escherichia coli [4]) of 4 µg/mL (≈ 15 µM), an MIC (Staphylococcus aureus [5]) of 4 µg/mL (≈ 15 µM) and an MIC (Shigella sonnei) of 4 µg/mL (≈ 15 µM). The MIC [6] was 4 µg/mL (≈ 15 µM), the MIC (Streptococcus pneumoniae [7]) was 4 µg/mL (≈ 15 µM) and the MIC (Haemophilus influenzae [8]) was 4 µg/mL (≈ 15 µM). For the same compound, the MIC (Escherichia coli [9]) was 4 µg/mL (≈ 15 µM), the MIC (Staphylococcus aureus [10]) was 4 µg/mL (≈ 15 µM) and the MIC (Salmonella) was 4 µg/mL (≈ 15 µM). It also gave an MIC (Shigella flexneri) of 4 µg/mL (≈ 15 µM).
